Test results from patent US9920074B2 (ACEA BIOSCIENCES INC., priority 2013, dated 2018).

Experiments:
Type in all cases: cell-based
[1] = system: Stat5 phosphorylation in NK-92 cells; experiment: Western blotting assay for Stat5; conditions: NK92, 1 hour, IL-2 stimulation, read-out: Stat5 inhibition
Protocol: (§1) All cell lines were obtained from the American Type Culture Collection and were maintained at 37° C. with 5% CO2. Ramos cell line was maintained in media supplemented with 10% fetal bovine serum, penicillin (100 units/mL) and streptomycin (100 μg/mL). NK-92 cell line was maintained in media supplemented with 10% fetal bovine serum and 10% horse serum, penicillin (100 units/mL) and streptomycin (100 μg/mL), IL-2 10 ng/mL. Goat F(ab′)2 Anti-Human IgM-UNLB was obtained from SouthernBiotech. IL-2 was obtained from Peprotech.
NK-92 cells were treated with compounds at the dosed indicated for 1 hour in incubator, followed by the IL-2 stimulation for 15 minutes. Cells were then collected and lysed to prepare the cellular extraction. Western blots were performed on cell lysate using Phospho-Jak3, Jak3, Phospho-Stat5, Stat5 antibodies (Cell Signaling Technology). The intensity of blotting band was acquired using Image Lab (Bio-Rad) software, and the IC50 of target was generated with GraphPad Prism.

[2] = molecular target: T1, Btk (Tyr223) phosphorylation in Ramos cells (Homo sapiens, UniProt Q06187); experiment: Western blotting assay for Btk (Example 73); conditions: 45 min, 6 μg/mL anti-IgM, read-out: Btk Inhibition
T1 construct: endogenous in cells; host or cells: Ramos cells (ATCC)
Protocol: as §1
Ramos cells were treated with compounds at indicated doses for 45 min at room temperature, followed by stimulation of 6 μg/mL of anti-IgM for 30 min, and then lysed. Western blots were performed on the cell lysate using Phospho-Btk (Tyr223), Phospho-Btk (Tyr551), Btk, Phospho-PLCγ2 (Tyr1217), PLCγ2, Phospho-p44/42 MAPK (Erk1/2) (Thr202/Tyr204) and p44/42 MAPK (Erk1/2) antibodies (Cell Signaling Technology). The density of blotting band was acquired using ImageJ software, and the IC50 of Btk (Tyr223) phosphorylation was fitted using a non-linear regression model by GraphPad Prism.

[3] = molecular target: T2, free Btk protein from Ramos cells (Homo sapiens, UniProt Q06187); experiment: Btk target site occupancy ELISA assay; conditions: 1 h, ELISA, read-out: Btk Occupancy Assay (IC50)
T2 construct: endogenous in cells; host or cells: Ramos cells (ATCC)
Protocol: (§2) Ramos cells were treated with Compound I-1 at indicated concentrations for 1 h, followed by stimulation with 6 μg/mL of IgM for 30 mm, and then lysed. Lysates were incubated with Compound I-21 (biotin labeled) at a final concentration of 1 μM in a PBS, 0.05% Tween-20, 1% BSA solution while shaking for 1 h at room temperature. Samples were transferred to a streptavidin-coated 96-well ELISA plate and mixed while shaking for 1 h at room temperature. The Btk antibody (BD 611116, 1:1000 dilution in PBS+0.05% Tween-20+0.5% BSA) was then applied and incubated for 1 h at room temperature. After wash, goat anti-mouse-HRP (Pierce 31432, 1:1000 dilution in PBS+0.05% Tween-20+0.5% BSA) was added and incubated for 1 h at room temperature. The ELISA was developed with addition of tetramethyl benzidine (TMB) followed by Stop Solution and read at OD 450 nm.
as §2, with “Compounds” for “Compound I-1”, “anti-IgM” for “IgM”, “diluted” for “dilution”, “tetramethylbenzidine” for “tetramethyl benzidine”

T1 sequence (Q06187 whole entry): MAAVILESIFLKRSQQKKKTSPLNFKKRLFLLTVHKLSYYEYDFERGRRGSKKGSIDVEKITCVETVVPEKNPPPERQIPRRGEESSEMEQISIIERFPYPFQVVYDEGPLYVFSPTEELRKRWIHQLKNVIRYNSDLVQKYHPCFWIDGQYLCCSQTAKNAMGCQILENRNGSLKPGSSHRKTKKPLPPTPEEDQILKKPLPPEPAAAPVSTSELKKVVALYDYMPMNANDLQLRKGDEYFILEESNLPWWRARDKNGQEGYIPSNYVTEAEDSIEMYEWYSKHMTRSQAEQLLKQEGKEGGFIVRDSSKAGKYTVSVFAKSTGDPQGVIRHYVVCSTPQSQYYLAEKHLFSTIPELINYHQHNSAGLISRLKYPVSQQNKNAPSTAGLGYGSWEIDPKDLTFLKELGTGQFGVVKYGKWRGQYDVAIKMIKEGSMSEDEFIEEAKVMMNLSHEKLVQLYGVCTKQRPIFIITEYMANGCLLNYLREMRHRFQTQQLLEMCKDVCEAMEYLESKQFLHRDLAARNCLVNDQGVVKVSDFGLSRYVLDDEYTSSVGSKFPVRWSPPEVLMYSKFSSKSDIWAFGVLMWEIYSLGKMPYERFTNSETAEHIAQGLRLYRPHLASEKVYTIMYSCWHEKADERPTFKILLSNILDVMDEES
T2 sequence (Q06187 whole entry): as above

An IC50 [1] of no less than 400 nM and an IC50 [2] of no more than 10 nM were found for C=CC(=O)Nc1cccc(Oc2nc(Nc3ccc(N(C)[C@H]4CCN(CCOC)C4)cc3)nc3[nH]ccc23)c1 [Compound I-49a, (S)—N-(3-(2-(4-((1-(2-methoxyethyl)pyrrolidin-3-yl)(methyl)amino)phenylamino)-7H-pyrrolo[2,3-d]pyrimidin-4-yloxy)phenyl)acrylamide] in this work.

An IC50 [1] of no less than 400 nM and an IC50 [2] of no more than 10 nM were found for C=CC(=O)Nc1cccc(Oc2nc(Nc3ccc(NCCOC)cc3)ncc2OC)c1 [Compound I-32a, N-(3-(5-methoxy-2-(4-(2-methoxyethylamino)phenylamino)pyrimidin-4-yloxy)phenyl)acrylamide] in this work.

An IC50 [1] of no less than 400 nM and an IC50 [2] of no more than 10 nM were found for C=CC(=O)Nc1cccc(Oc2nc(Nc3ccc(N[C@H]4CCN(CCOC)C4)cc3)nc3[nH]ccc23)c1 [Compound I-40a, (S)—N-(3-(2-(4-(1-(2-methoxyethyl)pyrrolidin-3-ylamino)phenylamino)-7H-pyrrolo[2,3-d]pyrimidin-4-yloxy)phenyl)acrylamide] in this work.

An IC50 [1] of no less than 400 nM and an IC50 [2] of no more than 10 nM were found for C=CC(=O)Nc1cccc(Oc2nc(Nc3ccc4c(c3)CC(=O)N4CCOC)ncc2OC)c1 [Compound I-52a, N-(3-(5-methoxy-2-(1-(2-methoxyethyl)-2-oxoindolin-5-ylamino)pyrimidin-4-yloxy)phenyl)acrylamide] in this work.

An IC50 [3] of no more than 10 nM and an IC50 [2] of no more than 10 nM were found for C=CC(=O)Nc1cccc(Oc2nc(Nc3ccc(N[C@H]4CCN(CCF)C4)cc3)ncc2F)c1 [Compound I-20, (S)—N-(3-(5-fluoro-2-(4-(1-(2-fluoroethyl)pyrrolidin-3-ylamino)phenylamino)pyrimidin-4-yloxy)phenyl)acrylamide] in this work.

An IC50 [1] of no less than 400 nM and an IC50 [2] of no more than 10 nM were found for C=CC(=O)Nc1cccc(Oc2nc(Nc3ccc(N(CC)[C@H]4CCN(CCOC)C4)cc3)ncc2OC)c1 [Compound I-51a, (S)—N-(3-(2-(4-(ethyl(1-(2-methoxyethyl)pyrrolidin-3-yl)amino)phenylamino)-5-methoxypyrimidin-4-yloxy)phenyl)acrylamide] in this work.

An IC50 [1] of 200 to 400 nM and an IC50 [2] of no more than 10 nM were found for C=CC(=O)Nc1cccc(Oc2nc(Nc3ccc(OCCS(C)(=O)=O)cc3)ncc2OC)c1 [Compound I-44a, N-(3-(5-methoxy-2-(4-(2-(methylsulfonyl)ethoxy)phenylamino)pyrimidin-4-yloxy)phenyl)acrylamide] in this work.

An IC50 [1] of 200 to 400 nM and an IC50 [2] of 10 to 100 nM were found for C=CC(=O)Nc1cccc(Oc2nc(Nc3ccc(N(C)CCOC)cc3)nc3[nH]ccc23)c1 [Compound I-41a, N-(3-(2-(4-((2-methoxyethyl)(methyl)amino)phenylamino)-7H-pyrrolo[2,3-d]pyrimidin-4-yloxy)phenyl)acrylamide] in this work.

An IC50 [1] of no less than 400 nM and an IC50 [2] of 10 to 100 nM were found for C=CC(=O)Nc1cccc(Oc2nc(Nc3ccc(N4CCN(C)CC4)c(F)c3)ncc2O)c1 [Compound I-23a, N-(3-(2-(3-fluoro-4-(4-methylpiperazin-1-yl)phenylamino)-5-hydroxypyrimidin-4-yloxy)phenyl)acrylamide] in this work.

An IC50 [1] of no less than 400 nM and an IC50 [2] of no more than 10 nM were found for C=CC(=O)Nc1cccc(Oc2nc(Nc3ccc4c(c3)CCN4CCOC)ncc2OC)c1 [Compound I-34a, N-(3-(5-methoxy-2-(1-(2-methoxyethyl)indolin-5-ylamino)pyrimidin-4-yloxy)phenyl)acrylamide] in this work.

An IC50 [1] of no less than 400 nM, an IC50 [3] of no more than 10 nM and an IC50 [2] of no more than 10 nM were found for C=CC(=O)Nc1cccc(Oc2nc(Nc3ccc(N(C)[C@H]4CCN(C(C)=O)C4)cc3)ncc2OC)c1 [Compound I-58a, (S)—N-(3-(2-(4-((1-acetylpyrrolidin-3-yl)(methyl)amino)phenylamino)-5-methoxypyrimidin-4-yloxy)phenyl)acrylamide] in this work.

An IC50 [1] of no less than 400 nM and an IC50 [2] of 10 to 100 nM were found for C=CCN(CCOC)c1ccc(Nc2ncc(OC)c(Oc3cccc(NC(=O)C=C)c3)n2)cc1 [Compound I-39a] in this work.

An IC50 [1] of no less than 400 nM and an IC50 [2] of no more than 10 nM were found for C=CC(=O)Nc1cccc(Oc2nc(Nc3ccc(N(C4CC4)[C@H]4CCN(CCOC)C4)cc3)ncc2OC)c1 [Compound I-53a, (S)—N-(3-(2-(4-(cyclopropyl(1-(2-methoxyethyl)pyrrolidin-3-yl)amino)phenylamino)-5-methoxypyrimidin-4-yloxy)phenyl)acrylamide] in this work.

An IC50 [1] of no more than 200 nM and an IC50 [2] of no more than 10 nM were found for C=CC(=O)Nc1cccc(Oc2nc(Nc3ccc(N[C@H]4CCN(CCOC)C4)cc3)ncc2OC)c1 [Compound I-30a, (S)—N-(3-(5-methoxy-2-(4-(1-(2-methoxyethyl)pyrrolidin-3-ylamino)phenylamino)pyrimidin-4-yloxy)phenyl)acrylamide] in this work.

An IC50 [1] of no less than 400 nM and an IC50 [2] of no more than 10 nM were found for C=CC(=O)Nc1cccc(Oc2nc(Nc3ccc(N(C)[C@H]4CCN(CCOC)C4)cc3)ncc2OC)c1 [Compound I-42a, (S)—N-(3-(5-methoxy-2-(4-((1-(2-methoxyethyl)pyrrolidin-3-yl)(methyl)amino)phenylamino)pyrimidin-4-yloxy)phenyl)acrylamide] in this work.

An IC50 [1] of 200 to 400 nM and an IC50 [2] of 10 to 100 nM were found for C=CC(=O)Nc1cccc(Oc2nc(Nc3ccc4c(c3)CCN4CCOC)nc3[nH]ccc23)c1 [Compound I-36a, N-(3-(2-(1-(2-methoxyethyl)indolin-5-ylamino)-7H-pyrrolo[2,3-d]pyrimidin-4-yloxy)phenyl)acrylamide] in this work.

An IC50 [1] of 200 to 400 nM and an IC50 [2] of no more than 10 nM were found for C=CC(=O)Nc1cccc(Oc2nc(Nc3ccc(N4CCN(CCOC)CC4)cc3)nc3[nH]ccc23)c1 [Compound I-47a, N-(3-(2-(4-(4-(2-methoxyethyl)piperazin-1-yl)phenylamino)-7H-pyrrolo[2,3-d]pyrimidin-4-yloxy)phenyl)acrylamide] in this work.

An IC50 [1] of no less than 400 nM and an IC50 [2] of 10 to 100 nM were found for C=CC(=O)Nc1cccc(Oc2nc(Nc3ccc(N(C)CCOC)nc3)ncc2OC)c1 [Compound I-33a, N-(3-(5-methoxy-2-(6-((2-methoxyethyl)(methyl)amino)pyridin-3-ylamino)pyrimidin-4-yloxy)phenyl)acrylamide] in this work.

An IC50 [1] of 200 to 400 nM and an IC50 [2] of no more than 10 nM were found for C=CC(=O)Nc1cccc(Oc2nc(Nc3ccc(N(C)CCOC)cc3)ncc2OC)c1 [Compound I-35a, N-(3-(5-methoxy-2-(4-((2-methoxyethyl)(methyl)amino)phenylamino)pyrimidin-4-yloxy)phenyl)acrylamide] in this work.

An IC50 [1] of no less than 400 nM and an IC50 [2] of 10 to 100 nM were found for C=CC(=O)Nc1cccc(Oc2nc(Nc3ccc(N(C)CCOC)nc3)nc3[nH]ccc23)c1 [Compound I-46a, N-(3-(2-(6-((2-methoxyethyl)(methyl)amino)pyridin-3-ylamino)-7H-pyrrolo[2,3-d]pyrimidin-4-yloxy)phenyl)acrylamide] in this work.

An IC50 [1] of 200 to 400 nM and an IC50 [2] of no more than 10 nM were found for C=CC(=O)Nc1cccc(Oc2nc(Nc3ccc4c(ccn4CCF)c3)ncc2OC)c1 [Compound I-43a, N-(3-(2-(1-(2-fluoroethyl)-1H-indol-5-ylamino)-5-methoxypyrimidin-4-yloxy)phenyl)acrylamide] in this work.

An IC50 [1] of 200 to 400 nM and an IC50 [2] of no more than 10 nM were found for C=CC(=O)Nc1cccc(Oc2nc(Nc3ccc(N(C)[C@H]4CCN(CCS(C)(=O)=O)C4)cc3)ncc2OC)c1 [Compound I-57a, (S)—N-(3-(5-methoxy-2-(4-(methyl(1-(2-(methylsulfonyl)ethyl)pyrrolidin-3-yl)amino)phenylamino)pyrimidin-4-yloxy)phenyl)acrylamide] in this work.

An IC50 [1] of no less than 400 nM and an IC50 [2] of no more than 10 nM were found for C=CC(=O)Nc1cccc(Nc2nc(Nc3ccc(N[C@H]4CCN(CCOC)C4)cc3)ncc2OC)c1 [Compound I-31a, (S)—N-(3-(5-methoxy-2-(4-(1-(2-methoxyethyl)pyrrolidin-3-ylamino)phenylamino)pyrimidin-4-ylamino)phenyl)acrylamide] in this work.
